{"source": "patent US8603493B2", "about": "“Carbosilane dendrimers, preparation method thereof and use of same” (Dendrico, S.L., priority 2005, dated 2013)", "key": {"[1]": {"biological_target": "T1, Insulin (recombinant human insulin) (Homo sapiens, UniProt P01308)", "T1 construct": "Despite having its molecular weight (5825 g/mol) and establishing an average of 4 (−) charges; purchased Novo Nordisk Actrapid (trade name; no catalogue number given)", "T1 sequence (P01308 25-54 limits assumed)": "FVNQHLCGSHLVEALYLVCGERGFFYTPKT", "T1 sequence (P01308 90-110 limits assumed)": "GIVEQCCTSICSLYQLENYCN", "assay": "pH stability test of IM16 dendrimer-insulin complexes", "assay_type": "physicochemical", "conditions": "0.5 U insulin; pH 5, 6, 7.4, 9, 10; 15 minutes", "procedure": "The test on the behaviour of the dendrimer-drug complexes previously formed on varying the medium's pH was again performed by evaluating the delay in polyacrylamide gel of the dendrimer bound to the drug with respect to free dendrimer, following a process similar to that used in the tests to determine the dendrimer-drug bond, although introducing a stage of variation of pH in the complex formation process of prior to electrophoresis, process that was performed in the following way: • Complex formation: It was performed in a final mixture volume of 30 μl, which is the maximum volume for loading in the gel. To do this, we started from the necessary quantity of dendrimer which provides a band perfectly identifiable by staining with silver nitrate in the gel once the electrophoresis has been performed: 20 μl of a 100 μM solution, which correspond to 1.2×10^15 molecules. […] An incubation was performed of the dendrimer and drug mixtures at 37° C. during 1 hour to give time for a more thermodynamically stable complex to form, although more time may be needed for its formation. For each pH to test, 2 mixtures were incubated. […]"}, "plasmid Nf-kappaB-luc": {"system": "plasmid Nf-kappaB-luc", "assay": "Capacity to form complexes with large-sized DNA (plasmid)", "assay_type": "binding", "conditions": "charge ratio (+/−)=6/1 manages to retain DNA migration", "procedure": "In a similar form to the previous experiments, electrophoresis was carried out with different samples, placing them a ladder type marker which measures up to 5000 pb in the well previous to it."}, "U87-MG cells [2]": {"system": "U87-MG cells", "assay": "Transfection of U87-MG cells mediated by dendrimers (flow cytometry)", "assay_type": "cell-based", "conditions": "dendriplex with anti-rev oligonucleotide 250 nM, − charge/+ charge ratio 1:8, 24 hours", "procedure": "100000 cells/well were plated of the corresponding cell line in a 24-well plate with 500 μl of medium.\nDendriplexes were formed with dendrimers NN and NN16 and the fluorescent anti-rev antisense oligonucleotide in a total volume of 75 μl of medium without serum, wherein the anti-rev oligonucleotide was mixed at a concentration 250 nM and the corresponding dendrimer in different proportions, so that different − charge/+ charge ratios were obtained: 1:1, 1:2, 1:4 and 1:8. The mixture was incubated during half an hour at ambient temperature and then it was added to the corresponding well to incubate the cells with dendriplexes.\nAfter 24 hours of incubation, the cells were removed from the well, they were washed twice with PBS, they were incubated for 1 minute with acid glycine to remove the possible moieties of dendriplexes which may have remained adhered on the cell membrane, and a final wash was performed with PBS. Finally, the cells were resuspended in 500 μl of PBS and the quantity of fluorescent oligonucleotide inside the cell was quantified by flow cytometry."}, "U87-MG cells [3]": {"system": "U87-MG cells", "assay": "Toxicity in U-87-MG cells: tests with MTT", "procedure": "A test with U-87-MG cells was performed, wherein the effect of the dendrimers on the viability of said lines was studied at different times. To do this, 15000 (24 hour incubations), 7000 (3 day incubations) or 1500 (7 day incubations) cells per well were plated in 96-well plates. The cells were incubated with different concentrations (1 μM, 5 μM and 10 μM) either NN dendrimer or NN16 dendrimer, during 24 hours, 3 days and 7 days. […] Two different positive controls were also used: cells treated with 7% DMSO and cells treated with 1% Triton X-100.\nIn the case of Superfect, three doses were tested, the optimum dose recommended by the manufacturer (2.5 μl), a lower dose (1.25 μl) and another higher dose (5 μl). With regard to Polyfect, specifically designed for adherent cells, the three doses tested were: optimum dose (0.6 μl), lower dose (0.3 μl) and higher dose (1.2 μl).\nAfter each corresponding incubation time, a test was performed with MTT analogous to that described in Example 38. At the absorbance value obtained in the untreated cells (C−) it was given the value of 1 and the moiety of the absorbencies produced was used to refer to it."}, "U87-MG cells [4]": {"system": "U87-MG cells", "assay": "Toxicity in U-87-MG cells: LDH in the supernatant", "from_the_text": "The concentrations and volumes of each one of these compounds were the same used in the test performed with MTT. The commercial kit Cytotoxicity Detection KitPLUS (LDH), from Roche Applied Science was used to determine lactate dehydrogenase, following the manufacturer's instructions."}}}
{"smiles": "C[N+](C)(C)CCO[Si](C)(CCC[Si](C)(CCC[Si](CCC[Si](C)(CCC[Si](C)(OCC[N+](C)(C)C)OCC[N+](C)(C)C)CCC[Si](C)(OCC[N+](C)(C)C)OCC[N+](C)(C)C)(CCC[Si](C)(CCC[Si](C)(OCC[N+](C)(C)C)OCC[N+](C)(C)C)CCC[Si](C)(OCC[N+](C)(C)C)OCC[N+](C)(C)C)CCC[Si](C)(CCC[Si](C)(OCC[N+](C)(C)C)OCC[N+](C)(C)C)CCC[Si](C)(OCC[N+](C)(C)C)OCC[N+](C)(C)C)CCC[Si](C)(OCC[N+](C)(C)C)OCC[N+](C)(C)C)OCC[N+](C)(C)C.[I-].[I-].[I-].[I-].[I-].[I-].[I-].[I-].[I-].[I-].[I-].[I-].[I-].[I-].[I-].[I-]", "note": "[IM16, 2G-[Si(OCH2CH2NMe3^+I^−)2]8]", "values": [{"measurement": "pH stability of dendrimer-insulin complex", "setting": "[1]", "value": "dissociated at acid pH"}]}
{"smiles": "C[N+](C)(C)CCO[Si](C)(C)CCC[Si](C)(CCC[Si](CCC[Si](C)(CCC[Si](C)(C)OCC[N+](C)(C)C)CCC[Si](C)(C)OCC[N+](C)(C)C)(CCC[Si](C)(CCC[Si](C)(C)OCC[N+](C)(C)C)CCC[Si](C)(C)OCC[N+](C)(C)C)CCC[Si](C)(CCC[Si](C)(C)OCC[N+](C)(C)C)CCC[Si](C)(C)OCC[N+](C)(C)C)CCC[Si](C)(C)OCC[N+](C)(C)C.[I-].[I-].[I-].[I-].[I-].[I-].[I-].[I-]", "note": "[IM8, 2G-[Si(OCH2CH2NMe3^+I^−)]8]", "values": [{"measurement": "complex formation with plasmid", "setting": "plasmid Nf-kappaB-luc", "value": "capable of forming complexes with the plasmid used"}]}
{"smiles": "CN(CCO[Si](C)(C)CCC[Si](C)(CCC[Si](CCC[Si](C)(CCC[Si](C)(C)OCCN(C)CC[N+](C)(C)C)CCC[Si](C)(C)OCCN(C)CC[N+](C)(C)C)(CCC[Si](C)(CCC[Si](C)(C)OCCN(C)CC[N+](C)(C)C)CCC[Si](C)(C)OCCN(C)CC[N+](C)(C)C)CCC[Si](C)(CCC[Si](C)(C)OCCN(C)CC[N+](C)(C)C)CCC[Si](C)(C)OCCN(C)CC[N+](C)(C)C)CCC[Si](C)(C)OCCN(C)CC[N+](C)(C)C)CC[N+](C)(C)C.[I-].[I-].[I-].[I-].[I-].[I-].[I-].[I-]", "note": "[NN, 2G-[Si(O(CH2)2N(Me)(CH2)2NMe3^+I^−)]8]", "values": [{"measurement": "percentage of cells transfected", "setting": "U87-MG cells [2]", "value": 95, "unit": "%"}, {"measurement": "viability (MTT), untreated cells (C−) = 1", "setting": "U87-MG cells [3]", "value": "0.6-0.75"}, {"measurement": "cytotoxicity (LDH), comparison", "setting": "U87-MG cells [4]", "value": "greater cytotoxicity as their concentration increases"}]}
